The source of these data is patent publication US8410166B2, “Fused bicyclic compound” (Mitsubishi Tanabe Pharma Corporation, priority 2007, dated 2013).

The target of the first experiment is T1, mineralocorticoid receptor (MR) (Rattus norvegicus, UniProt P22199).
T1 construct: the homogenate was centrifuged at 100,000×g for 1 hour to give a supernatant as a kidney cytosol fraction; from tissue; host or cells: kidney cytosol fraction of adrenalectomised male Sprague-Dawley rats
T1 sequence (P22199 1-981): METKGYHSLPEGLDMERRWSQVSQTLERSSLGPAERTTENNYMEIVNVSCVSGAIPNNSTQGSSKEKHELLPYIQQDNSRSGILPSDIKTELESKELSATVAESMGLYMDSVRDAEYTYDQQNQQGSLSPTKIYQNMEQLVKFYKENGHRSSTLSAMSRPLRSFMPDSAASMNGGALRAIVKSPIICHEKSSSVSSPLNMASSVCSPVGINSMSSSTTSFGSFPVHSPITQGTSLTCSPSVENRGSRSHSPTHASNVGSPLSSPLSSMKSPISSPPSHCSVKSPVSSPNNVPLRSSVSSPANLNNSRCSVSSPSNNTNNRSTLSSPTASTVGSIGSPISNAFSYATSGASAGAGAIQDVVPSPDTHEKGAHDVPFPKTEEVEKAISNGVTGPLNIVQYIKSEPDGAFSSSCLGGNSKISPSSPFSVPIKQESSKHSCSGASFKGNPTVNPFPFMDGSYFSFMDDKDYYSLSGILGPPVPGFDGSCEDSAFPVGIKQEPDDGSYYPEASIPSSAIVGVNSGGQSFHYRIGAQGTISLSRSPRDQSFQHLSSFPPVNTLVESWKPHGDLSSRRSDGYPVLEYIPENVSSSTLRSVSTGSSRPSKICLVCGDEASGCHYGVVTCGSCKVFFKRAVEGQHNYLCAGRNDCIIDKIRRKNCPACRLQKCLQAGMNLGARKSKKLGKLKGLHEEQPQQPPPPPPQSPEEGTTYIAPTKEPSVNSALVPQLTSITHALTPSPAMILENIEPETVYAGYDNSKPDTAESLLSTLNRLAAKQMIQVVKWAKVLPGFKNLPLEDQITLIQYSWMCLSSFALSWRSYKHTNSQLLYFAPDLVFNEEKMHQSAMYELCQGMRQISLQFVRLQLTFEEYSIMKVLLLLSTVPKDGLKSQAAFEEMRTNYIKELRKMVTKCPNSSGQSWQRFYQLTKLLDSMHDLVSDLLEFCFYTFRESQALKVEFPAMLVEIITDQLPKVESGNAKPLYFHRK
As to the kind of experiment: Aldosterone receptor binding assay (rat kidney cytosol, [3H]aldosterone). As to conditions: MR derived from rat kidney, 3H-aldosterone; read-out: Ki values in 3H-aldosterone binding to MR. On the procedure:
The compound of the present invention has a high affinity to a mineralocorticoid receptor (MR) of mammals. For example, in a biding assay using a rat MR and ^3H-aldosterone, which was conducted according to a method disclosed in The Journal of Pharmacology and Experimental Therapeutics, 1987; 240: p. […] Accordingly, the compound [I] is useful for treating and/or preventing the diseases associated with MR, e.g., circulatory system disease including hypertension and heart failure etc.
[Aldosterone Receptor Binding Assay]
(1) Preparation of Kidney Cytosol Fraction:
Kidneys derived from post-adrenalectomy Sprague-Dawley male rats (7 weeks old) were homogenized in the following buffer solution and the homogenate was centrifuged at 100,000×g for 1 hour to give a supernatant as a kidney cytosol fraction (protein concentration: 15 mg/mL) for the present biding assay.
Composition of Buffer Solution:
50 mM Tris-HCl (pH 7.5), 250 mM Sucrose, 50 mM Potassium chloride, 3 mM Magnesium chloride, 20 mM Sodium molybdate and 1 mM Mercaptoethanol
A mixture of 5 μL of a solution of each test compound in dimethylsulfoxide, 200 μL of kidney cytosol fraction, 50 μL of physiological saline (or 50 μL of unlabeled aldosterone solution (final concentration: 1 μM) and 50 μL of [^3H] aldosterone solution (ca. 2 nM) was incubated in a test tube at 4° C. overnight. Thereto was added 100 μL of dextrane-coated charcoal/10 mM Tris-HCl buffer and the mixture was incubated at 4° C. for 30 minutes. The reaction mixture was centrifuged at 3000 rpm for 10 minutes and to the supernatant (150 μL) was added 5 mL of a scintillater (Clearsol I, Nakarai Tesque). The radioactivity was measured by a liquid scintilation counter (TRI CARB 2200C A, Packard). The concentration of each test compound required to produce 50% inhibition of aldosterone-binding to receptors (IC50; μM) was calculated on the basis of the above quantitated radioactivity. Moreover, the dissociation constant (Ki) of each test compound was calculated on Cheng and Prusoff s equation (Ki=IC50/(1+[L]/Kd), wherein [L] is [^3H]aldosterone concentration and Kd is the affinity constant of aldosterone).
By Ki is commonly meant a measure of affinity in units of concentration, obtained from inhibition or displacement. Regarding `CC1(C)Oc2cc(N)ccc2C(c2ccc(F)cc2)=C1C#N` [7-amino-4-(4-fluorophenyl)-2,2-dimethyl-2H-chromen-3-carbonitrile], the Ki was < 10000 nM.

Take `CC1(C)N=C(c2ccc(Cl)cc2)c2ccc(NS(C)(=O)=O)cc2O1` [Example 1, N-[4-(4-chlorophenyl)-2.2-dimethyl-2H-1,3-benzoxazin-7-yl]methanesulfonamide]: the inhibition constant Ki is < 10000 nM. In the case of `CC1=C(c2ccc(F)cc2)c2ccc(NS(C)(=O)=O)cc2OC1(C)C` [Example 6, N-[4-(4-fluorophenyl)-2,2,3-trimethyl-2H-chromen-7-yl]methanesulfonamide], the inhibitory constant (Ki) was < 10000 nM. Regarding `CC1(C)N=C(c2ccc(F)cc2)c2c(F)cc(N)cc2O1` [5-fluoro-4-(4-fluorophenyl)-2,2-dimethyl-2H-1,3-benzoxazin-7-amine], the inhibition constant Ki is < 10000 nM.

The experiment is the same for the next values; noted with them: [3H]aldosterone binding to MR of rat kidney cytosol fraction; Ki by Cheng-Prusoff; read-out: Ki.
Turning to `CC1(C)Oc2cc(NS(C)(=O)=O)ccc2C(c2ccc(Cl)c(F)c2)=C1C#N` [Example 53], the Ki is < 500 nM. The same measure, in the same setting: the result for `Cc1cc(NS(C)(=O)=O)cc2c1C(c1ccc(F)cc1)=NC(C)(C)O2` [Example 47] reads < 500 nM. Still for that read-out and setting: with `CC1(C)N=C(c2ccccc2)c2ccc(NS(C)(=O)=O)cc2O1` [Example 10] the figure was 500 to 1000 nM; with `Cc1cc(Cl)ccc1C1=CC(C)(C)Oc2cc(NS(C)(=O)=O)ccc21` [Example 42], < 500 nM; with `CC1(C)N=C(c2ccc(Cl)cc2)c2ccc(NS(C)(=O)=O)cc2O1` [Example 1, N-[4-(4-chlorophenyl)-2.2-dimethyl-2H-1,3-benzoxazin-7-yl]methanesulfonamide], < 500 nM. The same measure, in the same setting: the result for `CC1=C(c2ccc(F)cc2)c2ccc(NS(C)(=O)=O)cc2OC1(C)C` [Example 6, N-[4-(4-fluorophenyl)-2,2,3-trimethyl-2H-chromen-7-yl]methanesulfonamide] reads < 500 nM. As to `CS(=O)(=O)Nc1ccc2c(c1)OC1(CCCC1)C(C#N)=C2c1ccc(F)cc1` [Example 55(2) compound (a), N-[3-cyano-4-(4-fluorophenyl)spiro[chromen-2′,1′-cyclopentan]-7-yl]methanesulfonamide], the Ki was < 500 nM. Take `CC1(C)CC(c2ccc(F)cc2)c2ccc(NS(C)(=O)=O)cc2O1` (centres unmarked) [Example 8, N-[4-(4-fluorophenyl)-2,2-dimethyl-3,4-dihydro-2H-chromen-7-yl]methanesulfonamide]: the inhibition constant Ki is < 500 nM. Same read-out and setting: with `CNS(=O)(=O)c1ccc2c(c1)OC(C)(C)N=C2c1ccc(F)cc1` [Example 61, N,2,2-trimethyl-4-(4-fluorophenyl)-2H-1,3-benzoxazin-7-sulfonamide] the figure was 500 to 1000 nM; with `CC1(C)N=C(c2csc3ccccc23)c2ccc(NS(C)(=O)=O)cc2O1` [Example 26], < 500 nM.
